In patent publication US20080071331A1, “Photodynamic Therapy For The Treatment Of Prostatic Conditions” (QLT Inc., priority 2004, published 2008):

Test system: prostate
Test: Photodynamic therapy of the dog prostate after direct intraprostatic injection of lemuteporfin and transurethral 690 nm light
Type: in vivo
Settings: mature intact mixed-breed dogs
Protocol: Eight mature, intact, mixed-breed dogs are premedicated with butorphanol (0.4 mg per kilogram of body weight), acepromazine (0.1 mg/kg), and atropine (0.4 mg/kg), all given by intramuscular injection. Anesthesia is induced with intravenous thiopental sodium (8 mg per 0.4536 kilograms of body weight) and maintained with inhaled isoflurane and oxygen (dosage as required for anesthetic effect). Lemuteporfin for injection (A-EA6 in U.S. Pat. No. 5,929,105) is reconstituted with Water for Injection to give a stock concentration of 2.0 mg/ml and diluted with 5% Dextrose in water to a concentration 0.2 mg/ml. A standard cystoscope is inserted into the urethra. Injections of the drug are then delivered to the prostate using a commercially available transurethral injection device (InjecTx™, San Jose, Calif., USA) which is compatible with the cystoscope. Two injections of 0.5 ml are given to each left lobe of the prostate and 2 injections of 1.0 ml are given to each right lobe of the prostate. The transurethral injection device is then removed and a guidewire is inserted through the working channel of the cystoscope. The activation-energy delivery device comprises: a cylindrical fibre optic with a 200 μm diameter core, a 25 mm long diffuser, and a power rating of 175 mW/cm (maximum power load, 437.5 mW); a reflective-cap fibre-centering balloon catheter with a 20 mm treatment window supplied with a guidewire for positioning the device in the urethra; and a 3 W 690 nm red-light diode laser (AOC, South Plainfield, N.J., USA). The catheter is inserted and positioned using the guidewire which is fed through an internal channel of the catheter. Once the catheter is in position the balloon is inflated to secure it in place. The guidewire is removed from the catheter and the fiber optic diffuser is inserted into the catheter and secured in place. The treatment assembly is positioned in the urethra using ultrasonic guidance. Ultrasound is also used to position the needles for four percutaneous intraprostatic injections (two per lobe separated by longitudinally by 1 cm). […]

[1] = 0.2 mg/ml intraprostatic injections, 690 nm light 25, 50 or 100 J/cm^2, after seven days

Bowel, bladder, and prostate sizes [1]: within normal ranges
SMILES: C=Cc1c(C)c2cc3nc(cc4[nH]c(cc5nc(cc1[nH]2)C(C)=C5CCC(=O)OCCO)c(CCC(=O)OCCO)c4C)[C@@]1(C)C3=CC=C(C(=O)OC)[C@H]1C(=O)OC [Lemuteporfin, lemuteporfin]
PDT-associated damage in the urethra [1]: no significant PDT-associated damage
PDT-associated tissue damage in the target tissue (prostates) (0.2 mg/ml, 2 x 0.5 ml left lobe, 2 x 1.0 ml right lobe, 690 nm light 25, 50 or 100 J/cm^2 15 minutes after last injection, prostates harvested after seven days): evidence of PDT-associated tissue damage in the target tissue
